According to the supplement of paper PMC11208160:

assay: recombinant UMI read abundance after kanamycin selection (control-corrected) (log10(CPM+1)); higher = more efficient recombination; extreme values may be limits of the assay; sequences stand for … in AGTGCAGAGAAAATCGGCCAGTTTTCTCTGCCTGCAGTCCGCATGCCGTGGGACCCCTTGGGTTCTAACCTGTTGCCTAGATTTATGCAGCGGACTGCCTTTCTCCCAAAGTGATAAACCGG…AGGTTGGTTTCACT; site = the 11-nt donor
In short: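 Two replicates each of selected and unselected plating were used in this pooled Escherichia coli screen of donor and donor-binding-loop pairs for the IS621 bridge recombinase. Selection was with IPTG (0.07 mM) and kanamycin. Counts of recombinant UMIs, amplified across the donor–target junction, were converted to CPM, averaged, scaled by control-derived factors and reported as log10(CPM+1).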
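Also: IS621 bridge recombinase in Escherichia coli cells against a fixed T5 target plasmid.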

| Sequence | recombinant UMI read abundance (log10) |
| --- | --- |
| CGAACATCATGGACCGGTTTTCCCGGTAATCCGTATTTGCC (site CGATCATCTAG) | 0 |
| CGAACATCATGGACCGGTTTTCCCGGTAATCCGTATTTGCT (site CGAACATCTAG) | 2.13 |
| CGAACATCATGGACCGGTTTTCCCGGTAATCCGTATTTGCT (site CGACCATCTAG) | 0.469 |
| CGAACATCATGGACCGGTTTTCCCGGTAATCCGTATTTGCT (site CGAGCATCTAG) | 1.39 |
| CGAACATCATGGACCGGTTTTCCCGGTAATCCGTATTTGCT (site CGATCATCTAG) | 0 |
| CGAACATCATGGACCGGTTTTCCCGGTAATCCGTATTTGCT (site CGCACATCTAG) | 0 |
| CGAACATCATGGACCGGTTTTCCCGGTAATCCGTATTTGCT (site CGGACATCTAG) | 0.583 |
| CGAACATCATGGACCGGTTTTCCCGGTAATCCGTATTTGCT (site CGTACATCTAG) | 0 |
| CGAACTACATGGACCGGTTTTCCCGGTAATCCGTATTTGAG (site CGAACTACTCT) | 1.95 |
| CGAAGCCCATGGACCGGTTTTCCCGGTAATCCGTATTTGAT (site CGAAGCCCTAT) | 1.22 |
| CGACAATCATGGACCGGTTTTCCCGGTAATCCGTATTTGCT (site CGACAATCTAG) | 2.77 |
| CGACAATCATGGACCGGTTTTCCCGGTAATCCGTATTTGCT (site CGATCATCTAG) | 0 |
| CGACATACATGGACCGGTTTTCCCGGTAATCCGTATTTGCG (site CGACATACTCG) | 2.76 |
| CGACCATCATGGACCGGTTTTCCCGGTAATCCGTATTTGCG (site CGACCATCTCG) | 2.23 |
| CGACCATCATGGACCGGTTTTCCCGGTAATCCGTATTTGCG (site CGATCATCTAG) | 0 |
| CGACCCACATGGACCGGTTTTCCCGGTAATCCGTATTTGGT (site CGACCCACTAC) | 1.23 |
| CGACCGACATGGACCGGTTTTCCCGGTAATCCGTATTTGTT (site CGAACGACTAA) | 0.0187 |
| CGACCGACATGGACCGGTTTTCCCGGTAATCCGTATTTGTT (site CGACCGACTAA) | 0.195 |
| CGACCGACATGGACCGGTTTTCCCGGTAATCCGTATTTGTT (site CGAGCGACTAA) | 0.00884 |

| Sequence | recombinant UMI read abundance (log10) |
| --- | --- |
| CGACCGACATGGACCGGTTTTCCCGGTAATCCGTATTTGTT (site CGATCGACTAA) | 0.00843 |
| CGACGACCATGGACCGGTTTTCCCGGTAATCCGTATTTGGG (site CGAAGACCTCC) | 0.0167 |
| CGACGACCATGGACCGGTTTTCCCGGTAATCCGTATTTGGG (site CGACGACCTCC) | 0.0126 |
| CGACGACCATGGACCGGTTTTCCCGGTAATCCGTATTTGGG (site CGAGGACCTCC) | 0.0314 |
| CGACGACCATGGACCGGTTTTCCCGGTAATCCGTATTTGGG (site CGATGACCTCC) | 0.0338 |
| CGACGAGCATGGACCGGTTTTCCCGGTAATCCGTATTTGGG (site ACGTCGACTTT) | 0.00438 |
| CGACTGGCATGGACCGGTTTTCCCGGTAATCCGTATTTGTA (site CGACTGGCTTA) | 1.65 |
| CGAGATCCATGGACCGGTTTTCCCGGTAATCCGTATTTGTT (site CGAGATCCTAA) | 1.4 |
| CGAGATCCATGGACCGGTTTTCCCGGTAATCCGTATTTGTT (site CGGAATCCTAA) | 0 |
| CGAGCACCATGGACCGGTTTTCCCGGTAATCCGTATTTGGG (site CGAGAACCTCC) | 0.00342 |
| CGAGCACCATGGACCGGTTTTCCCGGTAATCCGTATTTGGG (site CGAGCACCTCC) | 0.0175 |
| CGAGCACCATGGACCGGTTTTCCCGGTAATCCGTATTTGGG (site CGAGGACCTCC) | 0.0108 |
| CGAGCACCATGGACCGGTTTTCCCGGTAATCCGTATTTGGG (site CGAGTACCTCC) | 0.0136 |
| CGAGCAGCATGGACCGGTTTTCCCGGTAATCCGTATTTGCC (site CGAGCAGCTGG) | 2.69 |
| CGAGCATCATGGACCGGTTTTCCCGGTAATCCGTATTTGGT (site CGAGCATCTAC) | 2.34 |
| CGAGCCTCATGGACCGGTTTTCCCGGTAATCCGTATTTGCG (site CGAGCCTCTCG) | 2.41 |
| CGAGCGACATGGACCGGTTTTCCCGGTAATCCGTATTTGAA (site CGAGCGACTTT) | 1.74 |
| CGAGCTTCATGGACCGGTTTTCCCGGTAATCCGTATTTGCT (site CGAGCTTCTAG) | 1.85 |
| CGAGCTTCATGGACCGGTTTTCCCGGTAATCCGTATTTGCT (site CGATCATCTAG) | 0 |

| Sequence | recombinant UMI read abundance (log10) |
| --- | --- |
| CGAGGGACATGGACCGGTTTTCCCGGTAATCCGTATTTGTC (site CGAGGGACTGA) | 2.59 |
| CGAGTACCATGGACCGGTTTTCCCGGTAATCCGTATTTGAC (site CGAGTACCTGT) | 0 |
| CGAGTACCATGGACCGGTTTTCCCGGTAATCCGTATTTGAC (site CTAGTATCTGT) | 0 |
| CGAGTATCATGGACCGGTTTTCCCGGTAATCCGTATTTGAC (site CAAGTATCTGT) | 2.57 |
| CGAGTATCATGGACCGGTTTTCCCGGTAATCCGTATTTGAC (site CCAGTATCTGT) | 1.99 |
| CGAGTATCATGGACCGGTTTTCCCGGTAATCCGTATTTGAC (site CGAGTATCTGT) | 3.24 |
| CGAGTATCATGGACCGGTTTTCCCGGTAATCCGTATTTGAC (site CTAGTATCTGT) | 2.01 |
| CGAGTATCATGGACCGGTTTTCCCGGTAATCCGTATTTGCT (site CGAGTATCTAG) | 2.71 |
| CGAGTATCATGGACCGGTTTTCCCGGTAATCCGTATTTGCT (site CGATCATCTAG) | 0 |
| CGAGTGGCATGGACCGGTTTTCCCGGTAATCCGTATTTGGT (site AGAGTGGCTAC) | 0.574 |
| CGAGTGGCATGGACCGGTTTTCCCGGTAATCCGTATTTGGT (site CGAGTGGCTAC) | 1.1 |
| CGAGTGGCATGGACCGGTTTTCCCGGTAATCCGTATTTGGT (site GGAGTGGCTAC) | 0.0253 |
| CGAGTGGCATGGACCGGTTTTCCCGGTAATCCGTATTTGGT (site TGAGTGGCTAC) | 0.0187 |
| CGAGTGTCATGGACCGGTTTTCCCGGTAATCCGTATTTGAC (site CGAGTGTCTGT) | 2.13 |
| CGAGTGTCATGGACCGGTTTTCCCGGTAATCCGTATTTGAC (site CTAGTATCTGT) | 0.545 |
| CGATAAACATGGACCGGTTTTCCCGGTAATCCGTATTTGCG (site CGATAAACTCG) | 2.63 |
| CGATAATCATGGACCGGTTTTCCCGGTAATCCGTATTTGCT (site CGATAATCTAG) | 2.99 |
| CGATAATCATGGACCGGTTTTCCCGGTAATCCGTATTTGCT (site CGATCATCTAG) | 0 |
| CGATAATCATGGACCGGTTTTCCCGGTAATCCGTATTTGCT (site CGATGATCTAG) | 0 |
